The structures appear in SMILES notation. Active and inactive are the calls of the source. The rule behind the calls is not given here. A value given as a limit tells only on which side of the number the result lay.

The term EC50 denotes the concentration at which the effect is half-maximal.

This experiment concerns the target Botulinum neurotoxin type F (Clostridium botulinum) (UniProt P30996). Put plainly: Botulinum neurotoxin type F protease inhibition, microsphere cleavage flow cytometry, confirmatory dose response (AID 602338). Conditions: multiplex microsphere protease cleavage assay. (In general: Flow cytometry measures light scatter and fluorescence of single cells or particles in a stream.)
As for `COc1ccc(OC)c(-c2nc3cc4ccccc4cc3nc2-c2ccccc2)c1`, the EC50 is > 20 µM (inactive).

For `c1ccc(-c2cn3nc(-c4ccccc4)c(-c4ccccc4)nc3n2)cc1`, the EC50 was > 20 µM (inactive).

Take `O=[N+]([O-])c1cccc(-c2cn3nc(-c4ccccc4)c(-c4ccccc4)nc3n2)c1`: the EC50 is > 20 µM (inactive).

In the case of `CS(=O)(=O)N1N=C(c2ccccc2)CC1c1ccc2c(c1)OCO2` (centres undefined), the EC50 was > 20 µM (inactive).

With `Oc1[nH]c(N=C2N=c3ccccc3=N2)c2ccccc12`, the EC50 was > 20 µM (inactive).

Take `COc1ccc(C2CC(c3cccs3)=NN2c2nc(C)c(C(C)=O)s2)cc1OC` (centres undefined): the EC50 was > 20 µM (inactive).

With `CCSc1nnc(-c2sc3nnc(-c4ccccc4)c(-c4ccccc4)c3c2N)o1`, the EC50 was > 20 µM (inactive).

Regarding `CSc1nnc2c(n1)c(C)nn2-c1cccc(C)c1`, the EC50 is > 20 µM (inactive).

Regarding `CCS(=O)(=O)N1N=C(c2cccc(NS(C)(=O)=O)c2)CC1c1ccccc1` (centres undefined), the EC50 is > 20 µM (inactive).

On to `O=C(Nc1ccc2nc(-c3cccs3)c(-c3cccs3)nc2c1)NC1CC1`, for which the EC50 is > 20 µM (inactive).

With `O=c1c(/C=C(\O)c2ccccc2)nc2ccccc2n1-c1ccccc1`, the EC50 is > 20 µM (inactive).

In the case of `Cn1c(=O)c(/C=C/c2ccccc2)nc2ccccc21`, the EC50 is > 20 µM (inactive).

As for `CCOc1ccc2nc3cc(NCc4ccc(OC)cc4)ccc3c(N)c2c1`, the EC50 is > 20 µM (inactive).

For `O=C(Nc1ccc2nc(-c3cccs3)c(-c3cccs3)nc2c1)N1CCOCC1`, the EC50 is > 20 µM (inactive).

The record behind these values is PubChem BioAssay AID602338 (NMMLSC, 2012).
